Experimental data reported in ChEMBL document CHEMBL5465560, “Selectivity Literature for EUbOPEN Chemogenomic Library” (2024).
Each block holds one compound with its values, some of them ahead of it.

What was measured:
[1] = biological target: cAMP-dependent protein kinase catalytic subunit alpha (Homo sapiens, UniProt P17612); experiment: Selectivity interaction (KinomeScan (DiscoverX)) EUB0000618a PRKACA; settings: at 10 µM
[2] = biological target: T1, G protein-coupled receptor kinase 3 (Homo sapiens) (UniProt P35626); experiment: Selectivity interaction (SelectScreen profiling (Invitrogen)) EUB0000607a ADRBK2; settings: at 2 µM
T1 sequence (whole entry): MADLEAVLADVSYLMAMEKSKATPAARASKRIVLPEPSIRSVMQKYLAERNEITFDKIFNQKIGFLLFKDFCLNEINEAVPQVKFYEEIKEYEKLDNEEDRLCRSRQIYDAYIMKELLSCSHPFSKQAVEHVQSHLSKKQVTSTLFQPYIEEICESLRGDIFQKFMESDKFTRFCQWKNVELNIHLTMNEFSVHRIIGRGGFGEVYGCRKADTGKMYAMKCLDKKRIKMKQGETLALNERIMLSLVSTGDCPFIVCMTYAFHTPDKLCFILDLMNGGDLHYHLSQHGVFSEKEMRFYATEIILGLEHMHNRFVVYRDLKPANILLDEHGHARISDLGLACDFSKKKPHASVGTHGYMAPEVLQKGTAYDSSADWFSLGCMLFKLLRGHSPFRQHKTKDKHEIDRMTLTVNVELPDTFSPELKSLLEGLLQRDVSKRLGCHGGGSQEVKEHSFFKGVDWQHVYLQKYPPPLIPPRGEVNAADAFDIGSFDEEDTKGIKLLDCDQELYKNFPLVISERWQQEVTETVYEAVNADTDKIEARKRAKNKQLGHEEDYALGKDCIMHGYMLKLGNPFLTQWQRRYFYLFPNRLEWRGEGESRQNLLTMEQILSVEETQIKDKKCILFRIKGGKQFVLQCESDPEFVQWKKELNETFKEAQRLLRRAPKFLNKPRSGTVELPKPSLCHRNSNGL

[3] = biological target: Serine/threonine-protein kinase SBK1 (Homo sapiens) (UniProt Q52WX2); settings: at 10 µM
[4] = biological target: T2, Ephrin type-B receptor 4 (Homo sapiens) (UniProt P54760); settings: at 10 µM
T2 sequence (whole entry): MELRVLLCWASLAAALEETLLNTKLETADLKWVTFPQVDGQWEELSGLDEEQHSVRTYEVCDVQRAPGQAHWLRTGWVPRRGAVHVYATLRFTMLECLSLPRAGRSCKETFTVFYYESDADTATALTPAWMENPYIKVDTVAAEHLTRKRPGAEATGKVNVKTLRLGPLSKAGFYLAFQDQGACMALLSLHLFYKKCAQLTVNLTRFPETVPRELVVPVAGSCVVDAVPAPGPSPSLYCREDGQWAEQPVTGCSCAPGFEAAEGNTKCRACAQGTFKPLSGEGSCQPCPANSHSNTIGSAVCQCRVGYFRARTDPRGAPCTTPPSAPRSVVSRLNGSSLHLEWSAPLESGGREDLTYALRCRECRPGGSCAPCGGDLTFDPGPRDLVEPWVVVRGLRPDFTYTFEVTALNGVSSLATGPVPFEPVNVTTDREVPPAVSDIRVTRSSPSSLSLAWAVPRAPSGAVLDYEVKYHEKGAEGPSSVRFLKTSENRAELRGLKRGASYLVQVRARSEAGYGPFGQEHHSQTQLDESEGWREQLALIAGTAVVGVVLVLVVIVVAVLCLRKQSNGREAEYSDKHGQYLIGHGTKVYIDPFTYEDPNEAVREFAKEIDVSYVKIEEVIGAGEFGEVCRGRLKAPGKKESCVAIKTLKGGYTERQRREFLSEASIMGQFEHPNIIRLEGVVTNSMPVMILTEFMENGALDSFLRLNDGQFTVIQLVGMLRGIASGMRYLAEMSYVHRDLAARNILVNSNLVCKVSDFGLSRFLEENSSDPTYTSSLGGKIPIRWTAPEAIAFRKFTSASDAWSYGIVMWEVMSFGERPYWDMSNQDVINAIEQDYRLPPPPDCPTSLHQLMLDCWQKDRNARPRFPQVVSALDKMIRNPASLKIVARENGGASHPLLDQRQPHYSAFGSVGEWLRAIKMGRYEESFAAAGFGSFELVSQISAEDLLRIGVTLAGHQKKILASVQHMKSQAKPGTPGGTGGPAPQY

[5] = biological target: T3, Tyrosine-protein kinase Tec (Homo sapiens) (UniProt P42680); experiment: Selectivity interaction (ActivX KiNativ screen (kinase selectivity in THP-1 cell lysates)) EUB0000639a TEC; format: subcellular; settings: lysate, at 0.01 µM
T3 sequence (whole entry): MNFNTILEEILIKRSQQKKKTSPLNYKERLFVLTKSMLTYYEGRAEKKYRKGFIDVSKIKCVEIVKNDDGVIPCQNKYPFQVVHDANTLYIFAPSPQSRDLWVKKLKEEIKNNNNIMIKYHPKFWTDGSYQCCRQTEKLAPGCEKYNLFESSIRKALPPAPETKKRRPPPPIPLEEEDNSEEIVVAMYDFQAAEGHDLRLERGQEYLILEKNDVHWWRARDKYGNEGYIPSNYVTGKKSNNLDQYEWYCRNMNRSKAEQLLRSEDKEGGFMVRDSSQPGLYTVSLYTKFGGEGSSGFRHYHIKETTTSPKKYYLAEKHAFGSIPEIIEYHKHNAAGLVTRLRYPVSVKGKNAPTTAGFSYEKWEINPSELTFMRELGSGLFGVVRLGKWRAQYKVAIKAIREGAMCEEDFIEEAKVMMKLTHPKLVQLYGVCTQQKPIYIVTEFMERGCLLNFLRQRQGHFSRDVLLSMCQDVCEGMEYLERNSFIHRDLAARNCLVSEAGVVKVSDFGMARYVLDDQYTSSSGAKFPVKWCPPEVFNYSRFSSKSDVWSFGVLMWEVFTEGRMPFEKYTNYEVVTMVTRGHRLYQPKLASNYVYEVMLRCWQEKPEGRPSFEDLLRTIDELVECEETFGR

Sequence of Serine/threonine-protein kinase SBK1 (Homo sapiens) (Q52WX2 whole entry): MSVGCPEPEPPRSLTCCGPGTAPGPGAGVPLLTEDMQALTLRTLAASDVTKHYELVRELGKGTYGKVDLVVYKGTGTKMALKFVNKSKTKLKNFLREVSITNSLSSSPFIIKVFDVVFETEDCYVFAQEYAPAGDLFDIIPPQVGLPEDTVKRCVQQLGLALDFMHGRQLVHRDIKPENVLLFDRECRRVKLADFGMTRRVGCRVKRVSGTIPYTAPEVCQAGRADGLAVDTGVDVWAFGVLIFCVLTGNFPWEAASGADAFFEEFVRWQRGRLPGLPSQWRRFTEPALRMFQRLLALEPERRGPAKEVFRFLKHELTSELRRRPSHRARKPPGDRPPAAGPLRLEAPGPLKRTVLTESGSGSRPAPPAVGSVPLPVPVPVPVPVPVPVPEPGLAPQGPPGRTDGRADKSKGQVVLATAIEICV

Structure (SMILES): O[C@H]1CC[C@H](Nc2ncc3nc(Nc4c(F)cc(F)cc4F)n([C@H]4CCOC4)c3n2)CC1
% of control [1]: 100%

Structure (SMILES): CNC(=O)Nc1ccc(-c2nc(N3CC4CCC(C3)O4)c3cnn(C4CCC5(CC4)OCCO5)c3n2)cc1
% of inhibition [2]: -3%

Structure (SMILES): Cc1cc([C@@H](C)Nc2ccccc2C(=O)O)c2nc(N3CCOCC3)cc(=O)n2c1 [AZD-6482]
% of control [3]: 100%
% of control [4]: 96%

% of inhibition [5]: -72.2%
Structure (SMILES): CC[C@@H]1[C@H](F)C(=O)N[C@@H]1COc1nccc2cc(C(N)=O)c(OC)cc12 [ZIMLOVISERTIB]
